Data as given in patent publication US20120157401A1, “METHODS FOR TREATING NEUROFIBROMATOSIS” (PTC Therapeutics, Inc., priority 2009, published 2012).

What was measured:
HeLa cells = assay: Cell Titer Glo cytotoxicity / cell viability assay in HeLa cells (CC50); format: cell-based, human; details: any concentration tested
Text: A dose-response analysis may be performed using the ELISA assay and conditions described above. The conditions for the dose-response ELISA are analogous to those described above. A series of, e.g., seven different concentrations may be analyzed. In parallel, a dose-response cytotoxicity assay may be performed using Cell Titer Glo (Promega) under the same conditions as the ELISA to ensure that the inhibition of VEGF expression was not due to the cytotoxicity.
Experimental Design. HeLa (human cervical carcinoma) cell cultures were established under normoxic conditions (21% oxygen). HeLa cells increase VEGF production 4- to 5-fold in response to hypoxia. […] At the completion of treatment, the conditioned media were collected and the VEGF protein levels were assayed in an enzyme-linked immunosorbent assay (ELISA) with primary antibodies that recognize the soluble VEGF121 and VEGF165 isoforms (R & D Systems, Minneapolis, Minn., USA). To ensure that decreases in VEGF concentration were not due to cytotoxicity, cultures were assayed using a standard assay ([…]-GLO® Luminescent Cell Viability Assay; Promega, Madison, Wis., USA) that measures total cellular adenosine triphosphate (ATP) concentrations as an indicator of cell viability.

[1] = 14C-Compound #10 tissue distribution by quantitative whole-body autoradiography (Tables 23, 33); format: in vivo; details: rats, single oral 50 mg/kg
Description: For the QWBA, the carcasses were prepared by immediately freezing them, embedding them in chilled carboxymethylcellulose, and freezing them into blocks. Appropriate cryomicrotome sections of the blocks at 40 μm thickness were collected on adhesive tape. Mounted sections were tightly wrapped and exposed on phosphorimaging screens along with plastic embedded autoradiographic standards. Exposed screens were scanned and the autoradiographic standard image data were sampled to create a calibrated standard curve. Specified tissues, organs, and fluids were analyzed.

tumor VEGF = assay: Tumor VEGF content ELISA in microvessel density study, HT1080 xenografts; format: in vivo, human; details: racemic mixture, 5 mg/kg of Compound #10 oral BID, 10 days
Description: (§1) Experimental Design. HT1080 cells (5×10^6 cells/mouse) were implanted subcutaneously in male athymic nude mice.
At the end of treatment, the mice were sacrificed. Excised tumors were assayed by ELISA for VEGF content as described in Section 9.1.1.1, and were sectioned and immunostained with an anti murine CD31 antibody that is specific for endothelial cells.

[2] = ECG and blood pressure assessments in 7-day and 28-day GLP toxicity studies
IL-6 = assay: Patients: serum and plasma IL-6 levels; format: in vivo, human
Description: Subjects with NF2 may receive continuous daily treatment with a Compound administered at 100 mg per dose, 2 times a day (BID) for up to 1 year, or longer as appropriate, or until tumor progression. […] Tumor shrinkage or an improvement in hearing are indicators of efficacy.
Anti-angiogenic activity: Assessing VEGF concentrations provides a relevant and convenient mechanism-specific marker of Compound activity. […] For example, clinically validated ELISA kits (e.g., from R&D Systems, Minneapolis, Minn.) may be used to measure concentrations of VEGF, VEGF-C, P1GF, VEGFR, and inflammatory mediators such as IL-6 and IL-8. CT scan and MRI scan may also be used to assess peritumoral inflammation or edema.
Blood for VEGF, VEGFR, and Cytokines. Two blood samples (1 for plasma and 1 for serum) may be obtained for assessment of VEGF, VEGFR, and cytokine levels.
After processing, samples may be placed into a freezer at approximately −70° C. An ELISA-based multiplex system may be used to measure plasma VEGF and cytokine levels.

[3] = system: human VEGF121 and VEGF165; assay: HT1080 xenograft time course: pathologic plasma human VEGF; format: in vivo
Description: as §1
Tumor size was measured by calipers immediately pre-treatment and at the time of sacrifice on Day 1, 2, or 3 (5 mice per group per day). At sacrifice, the plasma was collected for assay of pathologic human VEGF concentration using an ELISA that recognizes human VEGF121 and VEGF165 (as described in Section 9.1.1.1).

HT1080 cells = assay: Cell cycle analysis by propidium iodide flow cytometry in HT1080 cells (percent cells in S-phase, Table 24); format: cell-based, human; details: HT1080, normoxic, 18 hours
Description: Experimental Design. […] After treatment, cells were trypsinized, and stained with propidium iodide (PI) dye to measure DNA content of individual cells by flow cytometry. Output comprised histograms showing relative DNA content in 10,000 cells.
While compounds which cause greater than 20% of the cells to accumulate in S-phase at 100 nM are considered active, a larger percentage of cells may be accumulated in S-phase at lower doses depending on the Compound, as shown in FIG. 12 for example.

[4] = system: soluble VEGF121 and VEGF165 isoforms; assay: VEGF inhibition EC50 by ELISA in the same human tumor cell lines (Table 25); format: cell-based
Description: Results. […] The conditioned media were collected and assayed by ELISA for soluble VEGF121 and VEGF165 isoforms (as described in Section 9.1.1.1); results were calculated as percentage inhibition relative to vehicle treated controls. EC50 values were calculated from the concentration response curves.

CYP2C9 = biological target: T1, CYP2C9 (Homo sapiens, UniProt P11712); assay: CYP inhibition: CYP2C9; format: in vitro ADME; details: human hepatic microsomes or recombinant isoenzymes
T1 construct: host or cells: human hepatic microsomes or recombinant isoenzyme (not distinguished)
T1 sequence (P11712 whole entry): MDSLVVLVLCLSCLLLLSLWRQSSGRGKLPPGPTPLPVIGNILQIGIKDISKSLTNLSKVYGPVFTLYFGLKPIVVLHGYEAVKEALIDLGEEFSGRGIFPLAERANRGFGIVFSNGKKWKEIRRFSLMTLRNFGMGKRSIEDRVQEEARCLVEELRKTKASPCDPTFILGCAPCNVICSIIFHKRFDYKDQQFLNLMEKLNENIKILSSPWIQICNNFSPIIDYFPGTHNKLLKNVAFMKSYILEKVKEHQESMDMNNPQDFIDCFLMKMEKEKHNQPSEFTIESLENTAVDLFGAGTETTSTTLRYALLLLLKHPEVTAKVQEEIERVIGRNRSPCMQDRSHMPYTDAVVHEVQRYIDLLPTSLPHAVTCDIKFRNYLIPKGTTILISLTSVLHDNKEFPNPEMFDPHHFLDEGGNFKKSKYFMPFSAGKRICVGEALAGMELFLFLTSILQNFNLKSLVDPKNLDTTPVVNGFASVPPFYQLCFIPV
Text: It is possible that in certain clinical trial subjects, such agents may need to be adjusted for dosing or replaced by alternative agents that are not metabolized by CYP2D6, particularly when such agents may have a low therapeutic index.

[5] = Functional observation battery, 7 days oral gavage; format: in vivo, Sprague Dawley rats; details: 40, 120, and 400 mg/kg daily for 7-days
[6] = system: VEGF189 and VEGF206 isoforms; assay: In-Cell Western / Western blot of matrix associated VEGF189/206 production in HT1080 cells; format: cell-based, human; details: HT1080, normoxic, 48 hours
Description: Experimental Design. HT1080 (human fibrosacoma) cell cultures were established under normoxic conditions (21% oxygen). HT1080 cells constitutively overproduce VEGF even under normoxic conditions. […] At the completion of treatment, the cells were washed and harvested. Cells were incubated with a primary antibody that recognizes the VEGF189 and VEGF206 isoforms. Infrared-dye labeled antibodies were applied secondarily, and the amounts of VEGF189 and VEGF206 were determined using the IN-CELL WESTERN® assay and ODYSSEY® infrared imaging system (Li-Cor, Lincoln, Nebr., USA); results are expressed as percentage inhibition relative to vehicle treated controls. Conventional Western blotting using the same primary antibody was also performed to confirm the presence of the matrix associated isoforms; for these experiments actin was used as a loading control. Actin is a ubiquitous housekeeping protein that is not known to be post transcriptionally regulated.

COc1ccc(C2c3[nH]c4ccc(Cl)cc4c3CCN2C(=O)Oc2ccc(Cl)cc2)cc1 (racemic) [Compound #10]
Cytotoxicity (cellular ATP) (HeLa cells): No cytotoxicity was observed
Tmax of radioactivity in blood and plasma ([1]; both sexes): 4 hours postdose
Blood-brain barrier penetration [1]: penetrates the blood-brain barrier
Overt signs of toxicity [1]: no overt signs of toxicity
Mean inhibition of tumor VEGF concentration (tumor VEGF): 95%
QTc values vs controls ([2]; males, 60 mg/kg/day, 28-day study): comparable to controls
Increase in mean uncorrected QT value vs controls ([2]; males, 60 mg/kg/day, end of 28-day dosing): 7%
Toxicological effects on ECG or blood pressure ([2]; through 120 mg/kg/day for 7-days and through 60 mg/kg/day for 28-days): did not have any toxicological effects
Plasma IL-6 levels in patients (FIG. 38) (IL-6): reduced
Course of pathologic plasma human VEGF concentrations ([3]; Days 2 and 3): continued to decline
Pathologic plasma human VEGF levels vs control animals ([3]; by Day 1): numerically lower than in control animals
Concentration from which accumulation of cells in S phase is observed (HT1080 cells): ≥ 1 nM
Effect on cell cycle distribution (FIG. 12, FIG. 24) (HT1080 cells; Compound #10 0.3-100 nM, Compound 1205 10 nM): induced a redistribution of the cycling characteristics
EC50 ([4]; Homo sapiens, ASPC1, ASPC-1 (Pancreas), 48 hours): > 30000 nM
EC50 ([4]; Homo sapiens, HCT-116, HCT116 (Colorectal), 48 hours): 10 nM
EC50 ([4]; Homo sapiens, HT-1080, HT1080 (Fibrosarcoma), 48 hours): 10 nM
EC50 ([4]; Homo sapiens, PL45, PL-45, 48 hours): > 30000 nM
EC50 ([4]; Homo sapiens, HEK293 (Renal cell), 48 hours): 10 nM
EC50 ([4]; Homo sapiens, HPAF-2, 48 hours): > 30000 nM
EC50 ([4]; Homo sapiens, HeLa (Cervical), 48 hours): 2 nM
EC50 ([4]; Homo sapiens, NCI H460 (Lung), 48 hours): 10 nM
EC50 ([4]; Homo sapiens, U-87MG (Glioblastoma), 48 hours): > 30000 nM
EC50 ([4]; PC-3, 48 hours): > 30000 nM
Inhibition of CYP2C9 (CYP2C9): No meaningful inhibition
Behavioral or neurological effects [5]: no adverse behavioral or neurological effects
Inhibition of VEGF189 and VEGF206 isoforms [6]: potent concentration-dependent inhibition
